From patent EP4467141A1, “PYRAZOLO-QUINOLINES AS SELECTIVE INHIBITORS OF GENOTOXIC STRESS-INDUCED IKK/NF- KB PATHWAYS FOR CANCER THERAPY” (Max-Delbrück-Centrum für Molekulare Medizin in der …, priority 2023, dated 2024) come the findings set out here.

By inhibition is commonly meant the drop in the measured response relative to a control, in per cent.

The test system of test [1] is p65 nuclear translocation. Description: HCS counter-screen: TNFα-induced p65 nuclear translocation in U2-OS cells. The test is classed as cell-based. As for the experimental part: Fig.1: Identification of inhibitors specific for DNA damage-induced NF-κB activity. (A) Flowchart representing the high-throughput chemical library screening. A screen/counter-screen strategy was used by stimulating NF-κB in U2-OS cells with etoposide (50 µM for 90 min) and hits were counter-screened with TNFα (10 ng/ml for 20 min). Cells were pre-treated with compounds (10 µM) for 1 hour before stimulation, fixed, and percent p65 nuclear translocation measured by fluorescence microscopy. IC50 values were used for final selection. (B) Comparison of mean p65 nuclear translocation following either etoposide or TNFa stimulation after treatment with each counter-screened hit compound. Values were normalized to etoposide or TNFα positive controls. Specific inhibitors (red) of DNA damage-induced NF-κB signaling were defined by setting cut-off criteria (black line). […] (E) Western blot analysis (top) and quantification (bottom) of NF-κB subunit p65 phosphorylation (S536) following 1-hour pre-treatment with DMSO, MW01 (10 µM), or MW05 (10 µM), in unstimulated, after 90 min irradiation (IR, 20 Gy), or after 20 min TNFα (10 ng/mL) conditions in U2- OS cells. […]
To identify inhibitors that selectively prevent DNA damage-induced NF-κB activation, we established a high-throughput screening platform quantifying p65 nuclear translocation, an essential step in NF-κB activation (Hayden and Ghosh, 2008). […]
On the technique in general: A counterscreen serves to expose hits that act by an unwanted route or on another target.

In another test the target is T1, PIM2 (Homo sapiens, UniProt Q9P1W9).
T1 construct: purchased Thermo Fisher Scientific
T1 sequence (Q9P1W9 whole entry): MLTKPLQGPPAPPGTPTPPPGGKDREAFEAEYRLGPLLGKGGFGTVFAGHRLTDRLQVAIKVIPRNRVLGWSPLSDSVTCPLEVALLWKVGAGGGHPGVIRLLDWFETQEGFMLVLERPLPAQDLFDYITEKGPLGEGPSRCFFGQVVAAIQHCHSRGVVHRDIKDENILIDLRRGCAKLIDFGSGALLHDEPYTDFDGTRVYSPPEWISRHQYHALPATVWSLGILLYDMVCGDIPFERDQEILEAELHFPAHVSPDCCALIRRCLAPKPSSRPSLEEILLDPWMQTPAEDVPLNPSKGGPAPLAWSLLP
Description: Kinase panel study. The test is classed as biochemical. Particulars: read-out: Percentage of inhibition; for inhibition at 1 µM: 1000nM; for inhibition at 10 µM: 10000nM. The method, boiled down:
(§1)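 Lead compounds and derivatives were profiled by ZLyte or Adapta in vitro kinase assays. Each value reports inhibition percentage at one of two concentrations, 1 µM or 10 µM.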

For the next test, the target named is T2, RET V804L (Homo sapiens, UniProt P07949, V804L).
T2 construct: purchased Thermo Fisher Scientific
T2 sequence (P07949 29-1114 V804L): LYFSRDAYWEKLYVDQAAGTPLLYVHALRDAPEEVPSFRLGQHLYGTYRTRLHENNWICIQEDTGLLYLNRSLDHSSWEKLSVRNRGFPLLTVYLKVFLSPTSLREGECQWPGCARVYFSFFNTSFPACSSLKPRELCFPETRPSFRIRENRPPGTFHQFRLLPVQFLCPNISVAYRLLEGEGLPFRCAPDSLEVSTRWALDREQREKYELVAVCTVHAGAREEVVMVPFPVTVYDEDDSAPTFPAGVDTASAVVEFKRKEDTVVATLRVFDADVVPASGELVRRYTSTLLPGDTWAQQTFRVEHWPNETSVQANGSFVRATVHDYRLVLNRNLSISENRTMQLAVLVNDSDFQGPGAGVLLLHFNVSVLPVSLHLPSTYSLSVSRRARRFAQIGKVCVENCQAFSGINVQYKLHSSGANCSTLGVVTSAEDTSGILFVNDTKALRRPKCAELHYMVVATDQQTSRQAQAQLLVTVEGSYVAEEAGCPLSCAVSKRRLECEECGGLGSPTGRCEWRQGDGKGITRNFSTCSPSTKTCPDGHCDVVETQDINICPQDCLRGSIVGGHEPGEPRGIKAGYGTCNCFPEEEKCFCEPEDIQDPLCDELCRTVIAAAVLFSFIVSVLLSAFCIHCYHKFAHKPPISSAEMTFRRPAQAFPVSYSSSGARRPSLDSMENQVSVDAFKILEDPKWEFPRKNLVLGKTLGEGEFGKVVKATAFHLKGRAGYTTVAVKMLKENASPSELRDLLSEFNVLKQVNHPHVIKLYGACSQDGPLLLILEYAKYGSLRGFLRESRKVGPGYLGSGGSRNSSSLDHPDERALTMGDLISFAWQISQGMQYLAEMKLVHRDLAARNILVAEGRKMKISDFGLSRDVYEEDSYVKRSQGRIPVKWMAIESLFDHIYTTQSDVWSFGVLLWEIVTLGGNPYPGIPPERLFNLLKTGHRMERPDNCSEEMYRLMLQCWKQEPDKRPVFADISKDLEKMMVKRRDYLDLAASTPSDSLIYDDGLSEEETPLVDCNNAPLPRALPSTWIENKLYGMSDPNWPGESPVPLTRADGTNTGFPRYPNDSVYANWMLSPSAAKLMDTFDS
Description: Kinase panel study. The test is classed as biochemical. Particulars: read-out: Percentage of inhibition; for inhibition at 1 µM: 1000nM; for inhibition at 10 µM: 10000nM. The method, boiled down:
as §1

The target of a further test is T3, SRC N1 (Homo sapiens, UniProt P12931).
T3 construct: purchased Thermo Fisher Scientific
T3 sequence (P12931 1-542 isoform P12931-2): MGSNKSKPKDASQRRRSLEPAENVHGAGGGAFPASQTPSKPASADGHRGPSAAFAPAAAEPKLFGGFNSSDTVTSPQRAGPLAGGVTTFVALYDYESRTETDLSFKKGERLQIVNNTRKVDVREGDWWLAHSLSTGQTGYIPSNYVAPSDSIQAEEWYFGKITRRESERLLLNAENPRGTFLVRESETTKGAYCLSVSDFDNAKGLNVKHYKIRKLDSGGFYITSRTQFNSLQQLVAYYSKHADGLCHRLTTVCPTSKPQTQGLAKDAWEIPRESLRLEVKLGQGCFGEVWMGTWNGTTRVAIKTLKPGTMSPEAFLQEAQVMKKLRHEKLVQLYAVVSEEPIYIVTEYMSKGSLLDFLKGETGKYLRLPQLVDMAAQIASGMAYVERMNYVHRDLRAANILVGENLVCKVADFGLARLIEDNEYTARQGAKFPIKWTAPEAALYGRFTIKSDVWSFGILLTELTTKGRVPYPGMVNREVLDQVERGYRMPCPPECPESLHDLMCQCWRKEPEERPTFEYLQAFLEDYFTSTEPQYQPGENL
Description: Kinase panel study. Particulars: read-out: Percentage of inhibition; for inhibition at 1 µM: 1000nM; for inhibition at 10 µM: 10000nM. The test is classed as biochemical. In a few lines:
as §1

The next test has as its target T4, CAMK4 (CaMKIV) (Homo sapiens, UniProt Q16566).
T4 construct: purchased Thermo Fisher Scientific
Kind of test: Kinase panel study. The test is classed as biochemical. Particulars: read-out: Percentage of inhibition; for inhibition at 1 µM: 1000nM; for inhibition at 10 µM: 10000nM. The method, boiled down: as §1

In another test the target is T5, CAMK1 (CaMK1) (Homo sapiens, UniProt Q14012).
T5 construct: purchased Thermo Fisher Scientific
Kind of test: Kinase panel study. Particulars: read-out: Percentage of inhibition; for inhibition at 1 µM: 1000nM; for inhibition at 10 µM: 10000nM. The test is classed as biochemical. The method, boiled down:
as §1

For another test, the target named is T6, NTRK2 (TRKB) (Homo sapiens, UniProt Q16620).
T6 construct: purchased Thermo Fisher Scientific
T6 sequence (Q16620 32-822): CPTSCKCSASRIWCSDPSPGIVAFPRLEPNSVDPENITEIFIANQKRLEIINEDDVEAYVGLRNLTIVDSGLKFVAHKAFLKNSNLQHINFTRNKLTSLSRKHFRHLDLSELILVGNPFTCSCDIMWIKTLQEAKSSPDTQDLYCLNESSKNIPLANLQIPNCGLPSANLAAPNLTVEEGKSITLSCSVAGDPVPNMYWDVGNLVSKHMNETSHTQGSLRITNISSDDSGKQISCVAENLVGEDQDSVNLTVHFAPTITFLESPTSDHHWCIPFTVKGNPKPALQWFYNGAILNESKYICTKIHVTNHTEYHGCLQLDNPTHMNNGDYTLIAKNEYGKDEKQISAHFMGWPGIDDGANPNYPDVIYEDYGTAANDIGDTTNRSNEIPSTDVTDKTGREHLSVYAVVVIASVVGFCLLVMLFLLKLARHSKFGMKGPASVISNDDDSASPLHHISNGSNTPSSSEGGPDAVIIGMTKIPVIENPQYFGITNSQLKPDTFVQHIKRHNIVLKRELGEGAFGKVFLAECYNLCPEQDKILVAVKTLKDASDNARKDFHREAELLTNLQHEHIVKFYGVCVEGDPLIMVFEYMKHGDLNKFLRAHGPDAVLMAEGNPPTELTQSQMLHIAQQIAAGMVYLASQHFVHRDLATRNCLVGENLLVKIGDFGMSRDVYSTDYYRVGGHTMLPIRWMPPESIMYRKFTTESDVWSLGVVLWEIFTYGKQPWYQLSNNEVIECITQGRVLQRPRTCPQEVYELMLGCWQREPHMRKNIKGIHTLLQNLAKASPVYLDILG
Kind of test: Kinase panel study. The test is classed as biochemical. Particulars: read-out: Percentage of inhibition; for inhibition at 1 µM: 1000nM; for inhibition at 10 µM: 10000nM. In a few lines:
as §1

A further test concerns the target T7, PRKCA (PKC alpha) (Homo sapiens, UniProt P17252).
T7 construct: purchased Thermo Fisher Scientific
Kind of test: Kinase panel study. The test is classed as biochemical. Particulars: read-out: Percentage of inhibition; for inhibition at 1 µM: 1000nM; for inhibition at 10 µM: 10000nM. In a few lines:
as §1

In the case of `COc1ccc2c(c1OC)c(=O)n1c3ccc(O)cc3c3ccnc2c31` [MW01, 5-Hydroxy-10,11-dimethoxy-9H-benzo[c]indolo[3,2,1-ij][1,5]naphthyridin-9-one], the “TNFα stimulated IC50 of p65 nuclear translocation” value in test [1] is recorded as “out of range”. For the same molecule, the inhibition at 1 µM at PIM2 was 6%; at RET V804L, 15%; at SRC N1, 15%; on CAMK4 (CaMKIV), -3%; at CAMK1 (CaMK1) it was -12%; at NTRK2 (TRKB), 35%. Besides, the inhibition at 1 µM at PRKCA (PKC alpha) was found to be 11%. Moreover, the inhibition at 10 µM on PIM2 was 13%; at RET V804L, 38%; at SRC N1, 25%; at CAMK4 (CaMKIV), 16%; at CAMK1 (CaMK1), -2%; at NTRK2 (TRKB), 68%. Moreover, the inhibition at 10 µM at PRKCA (PKC alpha) is 18%.
As for `COc1ccc2cc3c(N)nn(C(=O)c4cccc(N(C)C)c4)c3nc2c1` [MW05, (3-Amino-7-methoxypyrazolo[3,4-b]quinolin-1-yl)-[3-(dimethylamino)phenyl]methanone], the “TNFα stimulated IC50 of p65 nuclear translocation” value in test [1] is “out of range”. Also, the inhibition at 1 µM on PIM2 is -1%; on RET V804L, 2%; on SRC N1, 16%; on CAMK4 (CaMKIV), 2%; at CAMK1 (CaMK1) it was -11%; at NTRK2 (TRKB) it was 13%. Besides, the inhibition at 1 µM on PRKCA (PKC alpha) turned out to be 4%. Besides, the inhibition at 10 µM on PIM2 is -3%; at RET V804L it was 0%; at SRC N1 it was 14%; on CAMK4 (CaMKIV), -9%; on CAMK1 (CaMK1), -5%; on NTRK2 (TRKB) it was 42%. Also, the inhibition at 10 µM at PRKCA (PKC alpha) is -1%.
